Key:
Format in all cases: cell-based
RL cells = assay: RT2 Glucocorticoid signaling PCR array, RL (Table 4e, printed RI) cell line; conditions: 4 days, Cpd44 1 uM, Pred 10-fold below 4-day IC50, vs DMSO, B2M-normalized
Text: (§1) Expression levels of (A). Sestrin; (B). TNF and (C) GILZ normalized to DMSO controls for each cell line with the indicated single agent or combination.

SU-DHL4 cells = assay: RT2 Glucocorticoid signaling PCR array, SU-DHL4 (SUDHL4) cell line (Table 4f); conditions: SUDHL4, 4 days, vs DMSO
Text: as §1

OCI-Ly19 cells = assay: RT2 Glucocorticoid signaling PCR array, OCI-LY19 (Table 4a, printed OCT) cell line; conditions: vs DMSO

C[C@]12C=CC(=O)C=C1CC[C@@H]1[C@@H]2[C@@H](O)C[C@@]2(C)[C@H]1CC[C@]2(O)C(=O)CO [Prednisolone, prednisolone]
ΔΔCT (RL cells; ATF4 mRNA): 1.364
ΔΔCT (RL cells; CREB3 mRNA): 0.762
ΔΔCT (RL cells; CYB561 mRNA): −1.663
ΔΔCT (RL cells; PIK3R1 mRNA): 0.974
ΔΔCT (RL cells; POU2F1 mRNA): 1.130
ΔΔCT (RL cells; SESN1 mRNA): −4.062
ΔΔCT (RL cells; SLC19A2 mRNA): 0.047
ΔΔCT (RL cells; ZHX3 mRNA): 0.168
ΔΔCT, BCL6 (SU-DHL4 cells): −0.793
ΔΔCT, CEBPB (SU-DHL4 cells): 0.528
ΔΔCT, DDIT4 (SU-DHL4 cells): −1.931
ΔΔCT, DUSP1 (SU-DHL4 cells): −1.093
ΔΔCT, NFKBIA (SU-DHL4 cells): −0.710
ΔΔCT, PDP1 (SU-DHL4 cells): −0.521
ΔΔCT, POU2F2 (SU-DHL4 cells): −0.675
ΔΔCT, RASA3 (SU-DHL4 cells): −0.723
ΔΔCT, SPHK1 (SU-DHL4 cells): 0.331
ΔΔCT, STAT5A (SU-DHL4 cells): −0.389
ΔΔCT, TNF (SU-DHL4 cells): −2.845
ΔΔCT, VDR (SU-DHL4 cells): −0.996
ΔΔCT, VLDLR (SU-DHL4 cells): 1.191
ΔΔCT, ZNF281 (SU-DHL4 cells): −0.739
ΔΔCT, ADARB1 (OCI-Ly19 cells; gene ADARB1): −0.049
ΔΔCT, AK2 (OCI-Ly19 cells; gene AK2): −0.063
ΔΔCT, ANGPTL4 (OCI-Ly19 cells; gene ANGPTL4): −0.754
ΔΔCT, ARID68 (OCI-Ly19 cells; gene ARID68): −0.079
ΔΔCT, ASPH (OCI-Ly19 cells; gene ASPH): 0.346
ΔΔCT, ATF4 (OCI-Ly19 cells; gene ATF4): 0.456
ΔΔCT, BCL6 (OCI-Ly19 cells; gene BCL6): 0.239
ΔΔCT, CEBPB (OCI-Ly19 cells; gene CEBPB): 0.686
ΔΔCT COL4A2 (OCI-Ly19 cells; gene COL4A2): 1.601
ΔΔCT, CREB3L4 (OCI-Ly19 cells; gene CREB3L4): 0.152
ΔΔCT CTGF (OCI-Ly19 cells; gene CTGF): −1.080
ΔΔCT, DDIT4 (OCI-Ly19 cells; gene DDIT4): −1.173
ΔΔCT, DUSP1 (OCI-Ly19 cells; gene DUSP1): 0.164
ΔΔCT, EHD3 (OCI-Ly19 cells; gene EHD3): −0.773
ΔΔCT, FK8PS (OCI-Ly19 cells; gene FK8PS): −0.873
ΔΔCT, FOSL2 (OCI-Ly19 cells; gene FOSL2): −0.480
ΔΔCT, GDPD1 (OCI-Ly19 cells; gene GDPD1): 1.130
ΔΔCT GLUL (OCI-Ly19 cells; gene GLUL): −0.090
ΔΔCT, H6PD (OCI-Ly19 cells; gene H6PD): −0.483
ΔΔCT, HNRPLL (OCI-Ly19 cells; gene HNRPLL): −0.156
ΔΔCT, KLF9 (OCI-Ly19 cells; gene KLF9): −1.571
ΔΔCT, KLF13 (OCI-Ly19 cells; gene KLF13): −0.075
ΔΔCT, LOX (OCI-Ly19 cells; gene LOX): −1.179
ΔΔCT MERTK (OCI-Ly19 cells; gene MERTK): −0.277
ΔΔCT MTZA (OCI-Ly19 cells; gene MTZA): −0.169
ΔΔCT, NFKBIA (OCI-Ly19 cells; gene NFKBIA): 0.043
ΔΔCT, NR3C1 (OCI-Ly19 cells; gene NR3C1): −0.286
ΔΔCT PDCC7 (OCI-Ly19 cells; gene PDCC7): 4.571
ΔΔCT PDGFRB (OCI-Ly19 cells; gene PDGFRB): −2.242
ΔΔCT, PDP1 (OCI-Ly19 cells; gene PDP1): −0.422
ΔΔCT, PIK3R1 (OCI-Ly19 cells; gene PIK3R1): −0.119
ΔΔCT, PLEKHF1 (OCI-Ly19 cells; gene PLEKHF1): 0.139
ΔΔCT, POU2F1 (OCI-Ly19 cells; gene POU2F1): 0.048
ΔΔCT, POU2F2 (OCI-Ly19 cells; gene POU2F2): −0.574
ΔΔCT, RASA3 (OCI-Ly19 cells; gene RASA3): 0.009
ΔΔCT, RHOB (OCI-Ly19 cells; gene RHOB): −1.763
ΔΔCT, SESN1 (OCI-Ly19 cells; gene SESN1): 0.041
ΔΔCT, SGK1 (OCI-Ly19 cells; gene SGK1): −1.154
ΔΔCT, SLC10A6 (OCI-Ly19 cells; gene SLC10A6): −0.369
ΔΔCT, SLC19A2 (OCI-Ly19 cells; gene SLC19A2): 0.410
ΔΔCT, SLC22A5 (OCI-Ly19 cells; gene SLC22A5): 0.236
ΔΔCT, SNTA1 (OCI-Ly19 cells; gene SNTA1): 0.119
ΔΔCT, SPHK1 (OCI-Ly19 cells; gene SPHK1): 0.022
ΔΔCT, STAT5A (OCI-Ly19 cells; gene STAT5A): −0.064
ΔΔCT, STAT5B (OCI-Ly19 cells; gene STAT5B): 0.330
ΔΔCT, TNFAIP3 (OCI-Ly19 cells; gene TNFAIP3): 0.250
ΔΔCT, TSC22D3 (OCI-Ly19 cells; gene TSC22D3): −1.695
ΔΔCT, USP2 (OCI-Ly19 cells; gene USP2): −0.585
ΔΔCT, USPS4 (OCI-Ly19 cells; gene USPS4): 0.286
ΔΔCT, VDR (OCI-Ly19 cells; gene VDR): −0.730
ΔΔCT, ZHX3 (OCI-Ly19 cells; gene ZHX3): −0.730
ΔΔCT, ZNF281 (OCI-Ly19 cells; gene ZNF281): 0.871
